Measurements reported in patent publication US20110178105A1, “CLINICAL BENEFITS OF EICOSAPENTAENOIC ACID IN HUMANS” (E.I. DU PONT DE NEMOURS AND COMPANY, priority 2010, published 2011).
Values joined by “and” are separate entries in the source; they are usually repeats but may differ in a detail not shown here. Equal entries are not always repeated. Where two headings read alike, the source gives them in different places.

Legend:
[1] = doses of approximately 1200 mg/day; cited from earlier work
[2] = Clinical study: post-prandial lipids 4 hours after fat-rich test meal; type: in vivo, human; conditions: 6 weeks
Protocol: At visit 2, subjects were again asked to fast for 12 hours, and information about subject characteristics including all vital signs, recent illness or hospitalization, medication and supplement use, and diet information was again obtained. Subjects then had blood drawn for a metabolic profile and complete blood counts. […] Subjects (30 in each group) were then randomized equally for 6 weeks to one of four treatment arms: 1) olive oil placebo; 2) 600 mg of EPA/day; 3) 1800 mg of EPA/day; and, 4) 600 mg of DHA/day. At one week and three weeks after beginning the supplements, all study subjects were contacted by telephone and asked about any adverse effects and about their compliance, and the information on their calendars with regard to capsule use and fish intake. They were also asked about whether they had experienced any fishy aftertaste or odor, and if so, how frequent were these episodes, and how unpleasant were they? The entire process as listed above was repeated after study subjects were on the study capsules for 6 weeks at the time of the final visit. Compliance and adverse events were assessed by telephone at weeks 1 and 3 by telephone and at week 6 by questionnaire and capsule count. Over 42 days, subjects were expected to have consumed a total of 252 capsules. Compliance was calculated as a percentage of consumed capsule count/expected capsule count based on the number of days the subject was in the study. All subjects were asked to stay on their capsules until they come in for their final visit. Compliance in all participants who completed the study was based on capsule count was in excess of 85%, mean 96%.
On the samples obtained 4 hours after the fat-rich meal, total cholesterol, triglycerides, direct HDL cholesterol, and direct LDL cholesterol were measured. Direct LDL cholesterol and small dense LDL cholesterol levels were measured using kits obtained from Denka-Seiken Corporation, (Tokyo, Japan), as previously described (Okada, M. et al., supra; Hirano, T. et al., supra; Ai, M. et al., supra). Remnant lipoprotein cholesterol was measured using kits obtained from Polymedco (Cortland Manor, N.Y.) and manufactured by Otsuka Corporation (Tokyo, Japan) as previously described (McNamara, J. R. et al., Atherosclerosis, supra). All lipid assays are standardized through the Lipid Research Clinics standardization program of the Centers for Disease Control (Atlanta, Ga.). All assays had between and within run coefficients of variation of <5%. Serum fatty acid profiles were analyzed by Nutrasource Diagnostics (Guelph, Ontario, Canada).

[3] = cited from earlier work; for effects on C-reactive protein, interleukin-6, or tumor necrosis alpha: 4 grams per day; for reduction of triglyceride levels: overweight, hyperlipidemic men
[4] = parameters: reduction of events / relative risk reduction in stroke / reduction of risk of subsequent CHD events / relative risk reduction of major cardiovascular events: concentration or dose not given beside the values; conditions: cited from earlier work
[5] = EPA 1800 mg/day plus statin group (9,326), 4.6 years of follow-up

Compound: CCC=CCC=CCC=CCC=CCC=CC/C=C\CCC(=O)O [DHA, cis-4,7, 10, 13, 16, 19-docosahexaenoic acid, reference compound]
- lowering of triglyceride levels [1]: about 25%
- HDL C, 6-Week Change (%) ([2]; DHA 600 mg (n = 28)): +1.2 ± 10.9%
- HDL C, Final ([2]; DHA 600 mg (n = 28)): 57.5 ± 22.7 mg/dL
- LDL C, Final ([2]; DHA 600 mg (n = 28)): 121.9 ± 32.9 mg/dL
- Total Cholesterol, 6-Week Change (%) ([2]; DHA 600 mg (n = 28)): +6.2 ± 10.8%
- Total Cholesterol, Final ([2]; DHA 600 mg (n = 28)): 211.1 ± 38.6 mg/dL
- Triglyceride, 6-Week Change (%) ([2]; DHA 600 mg (n = 28)): −9.5% and −9.5 ± 24.4%
- Triglyceride, Final ([2]; DHA 600 mg (n = 28)): 169.8 ± 89.2 mg/dL
- effects on C-reactive protein, interleukin-6, or tumor necrosis alpha [3]: no significant effects
- HDL2 cholesterol ([3]; 4 grams/day): significantly increased
- forearm blood flow in response to acetylcholine infusion relative to placebo ([3]; 4 grams/day): significantly increased
- reduction of triglyceride levels ([3]; 4 grams/day): 20%

Compound: CCC=CCC=CCC=CCC=CC/C=C\CCCC(=O)O [EPA, cis-5,8, 11, 14, 17-eicosapentaenoic acid]
- HDL C, 6-Week Change (%) ([2]; EPA 600 mg (n = 27)): +4.8 ± 20.7%
- HDL C, Final ([2]; EPA 600 mg (n = 27)): 53.1 ± 16.4 mg/dL
- LDL C, 6-Week Change (%) ([2]; EPA 600 mg (n = 27)): −1.4 ± 12.9%
- LDL C, Final ([2]; EPA 600 mg (n = 27)): 108.2 ± 32.2 mg/dL
- Total Cholesterol, 6-Week Change (%) ([2]; EPA 600 mg (n = 27)): −0.3 ± 8.6%
- Total Cholesterol, Final ([2]; EPA 600 mg (n = 27)): 193.3 ± 44.7 mg/dL
- Triglyceride, 6-Week Change (%) ([2]; EPA 600 mg (n = 27)): −3.1 ± 36.9%
- Triglyceride, Final ([2]; EPA 600 mg (n = 27)): 184.9 ± 98.5 mg/dL
- HDL C, 6-Week Change (%) ([2]; EPA 1800 mg (n = 29)): +3.4 ± 11.5%
- HDL C, Final ([2]; EPA 1800 mg (n = 29)): 55.3 ± 15.3 mg/dL
- LDL C, 6-Week Change (%) ([2]; EPA 1800 mg (n = 29)): −2.7 ± 13.6%
- LDL C, Final ([2]; EPA 1800 mg (n = 29)): 111.5 ± 25.2 mg/dL
- Total Cholesterol, 6-Week Change (%) ([2]; EPA 1800 mg (n = 29)): −1.4 ± 9.9%
- Total Cholesterol, Final ([2]; EPA 1800 mg (n = 29)): 197.3 ± 33.8 mg/dL
- Triglyceride, 6-Week Change (%) ([2]; EPA 1800 mg (n = 29)): −3.8 ± 40.2%
- Triglyceride, Final ([2]; EPA 1800 mg (n = 29)): 193.5 ± 184.2 mg/dL
- triglyceride lowering ([4]; 1800 mg/day of EPA): no significant effect
- reduction of risk of subsequent CHD events ([4]; 1,050 subjects with prior myocardial infarction, EPA plus statin, p=0.033): 27%
- decrease in cardiovascular events ([4]; >98% purified EPA-ethyl esters plus statin versus statin alone): 19%
- major cardiovascular event rate [4, 5]: 2.8%
- major cardiovascular events observed [4, 5]: 262 events
- sudden death rates between the groups ([4]; EPA plus statin versus statin-only): No significant differences
- relative risk reduction of major cardiovascular events ([4]; EPA plus statin versus statin-only, p=0.011): 19%
- effects on lipid levels ([4]; EPA plus statin): not associated with any significant effects
- reduction in stroke ([4]; entire cohort, EPA plus statin): not associated with a significant reduction
- stroke rate ([4]; entire cohort, EPA plus statin): 1.3%
- risk reduction ([4]; impaired glucose tolerance (fasting glucose >110 mg/dl), EPA plus statin, p=0.048): 22%
- risk reduction ([4]; normal glucose group, EPA plus statin, not significant): 18%
- reduction of events ([4]; patients with a history of prior CHD, EPA plus statin versus statin-only, p=0.048): 19%
- event rate ([4]; patients with a history of prior CHD, EPA plus statin): 8.7%
- number needed to treat ([4]; patients with a history of prior CHD): 49
- rate of subsequent CHD events ([4]; subjects with prior myocardial infarction, EPA plus statin): 15.0%
- number needed to treat to prevent one event ([4]; subjects with prior myocardial infarction): 19
- stroke rate ([4]; subjects with prior stroke, EPA plus statin): 6.8%
- relative risk reduction in stroke ([4]; subjects with prior stroke, EPA plus statin, p<0.05): 20%
- event rate ([4]; subjects without CHD, EPA plus statin): 1.4%
- risk reduction ([4]; subjects without CHD, p 0.132 (not significant)): 18%
- reduction of CHD events ([4]; triglyceride >150 mg/dl and HDL cholesterol <40 mg/dl, EPA plus statin, p=0.043): 53%
- effects on C-reactive protein, interleukin-6, or tumor necrosis alpha [3]: no significant effects
- reduction of triglyceride levels ([3]; 4 grams/day): 18%
